# Results as given in patent US20250129135A1, “Multi-Agonist and Use Thereof” (priority 2021, published 2025).
# Starred links: 1 amine or outer side, 2 acyl side, 3 side chain; linkers in the order of their positions; H or OH if unused. Non-standard residues stand in square brackets, D forms with d. Residues, ends and D or L forms follow the SMILES beside them. Groups on a side chain read outwards from the residue. *: point of attachment. C20 diacid = O=C(O)CCCCCCCCCCCCCCCCCCC(=O)*; αMePhe(2-F) = C[C@](N)(Cc1ccccc1F)C(=O)O; γGlu = O=C(O)[C@H](CCC(=O)[*:2])N[*:1]; αMeF = C[C@](N)(Cc1ccccc1)C(=O)O; αMeL = CC(C)C[C@](C)(N)C(=O)O; AEEA = NCCOCCOCC(=O)O; Ac3c = NC1(C(=O)O)CC1; Aib = CC(C)(N)C(=O)O
# Columns and labels:
# [1] = biological target: Human GLP-1R (Homo sapiens, UniProt P43220); assay: cAMP (HTRF) activity in HEK-293 cells stably overexpressing human GLP-1 receptor; assay type: cell-based; set-up: expressed in transfected cells; host or cells: HEK-293; details: for Human GLP-1R Rel. A (Relative Activity): EC50 of human GLP-1 (7-37) / EC50 of compound; for EC50: stable transfected cell cAMP activity, at least 3 independent tests
# Human GLP-1R, sequence (P43220 24-463): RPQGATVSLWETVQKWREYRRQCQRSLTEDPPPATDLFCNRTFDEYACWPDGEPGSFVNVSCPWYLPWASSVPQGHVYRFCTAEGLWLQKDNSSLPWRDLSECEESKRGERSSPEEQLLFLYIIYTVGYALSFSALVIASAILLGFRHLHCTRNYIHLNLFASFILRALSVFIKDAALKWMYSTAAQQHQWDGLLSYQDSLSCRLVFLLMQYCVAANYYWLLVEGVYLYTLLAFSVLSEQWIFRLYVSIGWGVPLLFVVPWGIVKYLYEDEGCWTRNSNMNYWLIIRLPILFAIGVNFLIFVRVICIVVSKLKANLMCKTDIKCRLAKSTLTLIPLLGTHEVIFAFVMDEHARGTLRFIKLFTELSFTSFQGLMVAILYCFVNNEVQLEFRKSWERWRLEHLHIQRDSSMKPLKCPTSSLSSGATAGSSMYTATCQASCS
# Outline: (§1)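 Cells in HBSS are exposed to compound for 60 min at room temperature, followed by 60 min with detection reagent. EC50 (nM) is taken from concentration-response curves.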
# [2] = biological target: T1, Human GIP R (Homo sapiens, UniProt P48546); assay: cAMP (HTRF) activity in CHO cells stably overexpressing GIP receptor; assay type: cell-based; details: for Human GIP R Rel. A (Relative Activity): EC50 of human GIP / EC50 of compound; for EC50: stable transfected cell cAMP activity, at least 3 independent tests
# T1 construct: expressed in transfected cells; host or cells: CHO
# T1 sequence (P48546 22-466): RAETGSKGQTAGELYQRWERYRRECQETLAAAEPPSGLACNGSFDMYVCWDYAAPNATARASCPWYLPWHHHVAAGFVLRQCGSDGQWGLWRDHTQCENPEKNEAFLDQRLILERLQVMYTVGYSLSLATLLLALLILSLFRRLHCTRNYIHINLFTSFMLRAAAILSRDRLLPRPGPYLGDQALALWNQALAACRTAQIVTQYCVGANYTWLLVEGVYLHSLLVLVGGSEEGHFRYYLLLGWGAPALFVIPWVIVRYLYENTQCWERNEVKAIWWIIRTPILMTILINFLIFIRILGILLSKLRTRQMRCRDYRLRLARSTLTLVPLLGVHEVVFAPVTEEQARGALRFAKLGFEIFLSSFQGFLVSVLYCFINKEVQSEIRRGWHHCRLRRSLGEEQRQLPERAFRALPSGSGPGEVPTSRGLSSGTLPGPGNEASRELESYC
# Outline: as §1
# [3] = biological target: T2, Human GCG R (Homo sapiens, UniProt P47871); assay: cAMP (HTRF) activity in HEK-293 cells stably overexpressing human GCG receptor; assay type: cell-based; details: EC50 of human GCG / EC50 of compound
# T2 construct: expressed in transfected cells; host or cells: HEK-293
# T2 sequence (P47871 26-477): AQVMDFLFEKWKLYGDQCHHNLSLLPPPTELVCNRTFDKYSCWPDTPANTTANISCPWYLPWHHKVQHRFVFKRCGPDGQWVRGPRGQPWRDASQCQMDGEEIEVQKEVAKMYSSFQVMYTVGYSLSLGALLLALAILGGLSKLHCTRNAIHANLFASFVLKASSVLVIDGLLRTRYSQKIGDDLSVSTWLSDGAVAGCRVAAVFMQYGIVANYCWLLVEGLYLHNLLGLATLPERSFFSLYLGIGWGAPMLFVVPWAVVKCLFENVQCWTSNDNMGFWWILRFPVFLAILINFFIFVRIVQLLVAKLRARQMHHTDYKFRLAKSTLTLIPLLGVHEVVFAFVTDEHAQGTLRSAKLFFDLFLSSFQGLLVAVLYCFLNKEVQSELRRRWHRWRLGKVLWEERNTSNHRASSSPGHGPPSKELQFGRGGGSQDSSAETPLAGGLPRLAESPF
# Outline: as §1
# [4] = tested on: 3T3-L1 adipocytes; details: for Rel. A (Relative Activity) on 3T3-L1 adipocyte: relative to GIP
# Outline: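 Compound-induced cAMP was measured in mature 3T3-L1 adipocytes after 60 min room-temperature exposure to a 10-concentration, 3-fold dilution series, followed by 60 min with kit detection reagent and curve fitting. Differentiation used IBMX/dexamethasone/insulin (5 days), insulin with 10 uM rosiglitazone (3 days), then 2–3 days in 10% FBS.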
# [5] = tested on: RIN-m5F cells; assay type: cell-based, rat; details: for Rel. A (Relative Activity) on RIN-m5F: relative to GLP-1(7-37)
# Outline: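 After 60 min room-temperature exposure of HBSS-suspended RIN-m5F cells to compound and another 60 min with detection reagent, cellular cAMP level was determined.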
# [6] = tested on: human primary liver cells; assay type: cell-based; details: for Rel. A (Relative Activity) on human primary liver cells: relative to GCG
# Outline: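 cAMP readout after 60 min with detection reagent, following 60 min room-temperature compound incubation. Cells were primary human liver cells thawed at 37° C and resuspended in HBSS.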
Human GLP-1R Rel. A (Relative Activity) [1] [%],EC50 [1] [nM],Human GIP R Rel. A (Relative Activity) [2] [%],EC50 [2] [nM],Human GCG R Rel. A (Relative Activity) [3] [%],EC50 [5] [nM],EC50 [6] [nM],Compound,EC50 [4] [nM],Rel. A (Relative Activity) on 3T3-L1 adipocyte [4] [%],Rel. A (Relative Activity) on RIN-m5F [5] [%],Rel. A (Relative Activity) on human primary liver cells [6] [%]
200.00,0.022,2262.50,0.008,65.52,0.346,1.96,CC[C@H](C)[C@H](NC(=O)[C@H](Cc1ccccc1)NC(=O)[C@H](C)NC(=O)C(C)(C)NC(=O)[C@H](CCC(N)=O)NC(=O)[C@H](C)NC(=O)[C@H](CCCCNC(=O)COCCOCCNC(=O)COCCOCCNC(=O)CC[C@H](NC(=O)CCCCCCCCCCCCCCCCCCC(=O)O)C(=O)O)NC(=O)[C@H](CCCCN)NC(=O)[C@H](CC(=O)O)NC(=O)[C@H](CC(C)C)NC(=O)[C@](C)(CC(C)C)NC(=O)[C@@H](NC(=O)[C@H](CO)NC(=O)[C@H](Cc1ccc(O)cc1)NC(=O)[C@H](CC(=O)O)NC(=O)[C@H](CO)NC(=O)[C@@H](NC(=O)[C@](C)(Cc1ccccc1)NC(=O)[C@@H](NC(=O)CNC(=O)[C@H](CCC(N)=O)NC(=O)C(C)(C)NC(=O)[C@@H](N)Cc1ccc(O)cc1)[C@@H](C)O)[C@@H](C)O)[C@@H](C)CC)C(=O)N[C@@H](CCC(=O)O)C(=O)N[C@@H](Cc1ccc(O)cc1)C(=O)N[C@@H](CC(C)C)C(=O)N[C@@H](CC(C)C)C(=O)N[C@@H](CCC(=O)O)C(=O)N[C@H](C(=O)NCC(=O)N1CCC[C@H]1C(=O)N[C@@H](CO)C(=O)N[C@@H](CO)C(=O)NCC(=O)N[C@@H](CCC(N)=O)C(=O)N1CCC[C@H]1C(=O)N1CCC[C@H]1C(=O)NC1(C(=O)N[C@@H](CO)C(N)=O)CC1)[C@@H](C)O [Compound 35] (H-Y[Aib]QGT[αMeF]TSDYSI[αMeL]LDKK([AEEA-AEEA-γGlu-C20 diacid])AQ[Aib]AFIEYLLETGPSSGQPP[Ac3c]S-NH2; N-terminus assumed),6.01,63.28,298.27,198.52
157.14,,1206.67,0.015,69.51,0.176,1.04,CC[C@H](C)[C@H](NC(=O)[C@H](Cc1ccccc1)NC(=O)[C@H](C)NC(=O)C(C)(C)NC(=O)[C@H](CCC(N)=O)NC(=O)[C@H](C)NC(=O)[C@H](CCCCNC(=O)COCCOCCNC(=O)COCCOCCNC(=O)CC[C@H](NC(=O)CCCCCCCCCCCCCCCCCCC(=O)O)C(=O)O)NC(=O)[C@H](CCCCN)NC(=O)[C@H](CC(=O)O)NC(=O)[C@H](CC(C)C)NC(=O)[C@](C)(CC(C)C)NC(=O)[C@@H](NC(=O)[C@H](CO)NC(=O)[C@H](Cc1ccc(O)cc1)NC(=O)[C@H](CC(=O)O)NC(=O)[C@H](CO)NC(=O)[C@@H](NC(=O)[C@](C)(Cc1ccccc1)NC(=O)[C@@H](NC(=O)CNC(=O)[C@H](CCC(N)=O)NC(=O)C(C)(C)NC(=O)[C@@H](N)Cc1ccc(O)cc1)[C@@H](C)O)[C@@H](C)O)[C@@H](C)CC)C(=O)N[C@@H](CCC(=O)O)C(=O)N[C@@H](Cc1ccccc1)C(=O)N[C@@H](CC(C)C)C(=O)N[C@@H](CC(C)C)C(=O)N[C@@H](CCC(=O)O)C(=O)NCC(=O)N[C@@H](CCCNC(=N)N)C(=O)N1CCC[C@H]1C(=O)N[C@@H](CO)C(=O)N[C@@H](CO)C(=O)NC(C)(C)C(=O)N[C@@H](Cc1c[nH]cn1)C(=O)N1CCC[C@H]1C(=O)N1CCC[C@H]1C(=O)N1CCC[C@H]1C(=O)N[C@@H](CO)C(N)=O [Compound 37] (H-Y[Aib]QGT[αMeF]TSDYSI[αMeL]LDKK([AEEA-AEEA-γGlu-C20 diacid])AQ[Aib]AFIEFLLEGRPSS[Aib]HPPPS-NH2; N-terminus assumed),2.49,152.87,586.36,373.06
56.41,,1206.67,0.015,37.25,0.843,2.03,CC[C@H](C)[C@H](NC(=O)[C@H](Cc1ccccc1)NC(=O)[C@H](C)NC(=O)C(C)(C)NC(=O)[C@H](CCC(N)=O)NC(=O)[C@H](C)NC(=O)[C@H](CCCCNC(=O)COCCOCCNC(=O)COCCOCCNC(=O)CC[C@H](NC(=O)CCCCCCCCCCCCCCCCCCC(=O)O)C(=O)O)NC(=O)[C@H](CCCCN)NC(=O)[C@H](CC(=O)O)NC(=O)[C@H](CC(C)C)NC(=O)[C@](C)(CC(C)C)NC(=O)[C@@H](NC(=O)[C@H](CO)NC(=O)[C@H](Cc1ccc(O)cc1)NC(=O)[C@H](CC(=O)O)NC(=O)[C@H](CO)NC(=O)[C@@H](NC(=O)[C@](C)(Cc1ccccc1F)NC(=O)[C@@H](NC(=O)CNC(=O)[C@H](CCC(N)=O)NC(=O)C(C)(C)NC(=O)[C@@H](N)Cc1ccc(O)cc1)[C@@H](C)O)[C@@H](C)O)[C@@H](C)CC)C(=O)N[C@@H](CCC(=O)O)C(=O)N[C@@H](Cc1ccccc1)C(=O)N[C@@H](CC(C)C)C(=O)N[C@@H](CC(C)C)C(=O)N[C@@H](CCC(=O)O)C(=O)N[C@H](C(=O)N[C@@H](CCCNC(=N)N)C(=O)N1CCC[C@H]1C(=O)N[C@@H](CO)C(=O)N[C@@H](CO)C(=O)NC(C)(C)C(=O)N[C@@H](Cc1c[nH]cn1)C(=O)N1CCC[C@H]1C(=O)N1CCC[C@H]1C(=O)N1CCC[C@H]1C(=O)N[C@@H](CO)C(N)=O)[C@@H](C)O [Compound 39] (H-Y[Aib]QGT[αMePhe(2-F)]TSDYSI[αMeL]LDKK([AEEA-AEEA-γGlu-C20 diacid])AQ[Aib]AFIEFLLETRPSS[Aib]HPPPS-NH2),2.05,185.83,122.42,191.77
366.67,0.012,247.95,,70.37,0.136,0.907,CC[C@H](C)[C@H](NC(=O)[C@H](Cc1ccccc1)NC(=O)[C@H](C)NC(=O)C(C)(C)NC(=O)[C@H](CCC(N)=O)NC(=O)[C@H](C)NC(=O)[C@H](CCCCNC(=O)COCCOCCNC(=O)COCCOCCNC(=O)CC[C@H](NC(=O)CCCCCCCCCCCCCCCCCCC(=O)O)C(=O)O)NC(=O)[C@H](CCCCN)NC(=O)[C@H](CC(=O)O)NC(=O)[C@H](CC(C)C)NC(=O)[C@H](CC(C)C)NC(=O)[C@@H](NC(=O)[C@H](CO)NC(=O)[C@H](Cc1ccc(O)cc1)NC(=O)[C@H](CC(=O)O)NC(=O)[C@H](CO)NC(=O)[C@@H](NC(=O)[C@](C)(Cc1ccccc1F)NC(=O)[C@@H](NC(=O)CNC(=O)[C@H](CCC(N)=O)NC(=O)C(C)(C)NC(=O)[C@@H](N)Cc1ccc(O)cc1)[C@@H](C)O)[C@@H](C)O)[C@@H](C)CC)C(=O)N[C@@H](CCC(=O)O)C(=O)N[C@@H](Cc1ccccc1)C(=O)N[C@@H](CC(C)C)C(=O)N[C@@H](CC(C)C)C(=O)N[C@@H](CCC(=O)O)C(=O)N[C@@H](CO)C(=O)N[C@@H](Cc1c[nH]cn1)C(=O)N1CCC[C@H]1C(=O)N[C@@H](CO)C(=O)N[C@@H](CO)C(=O)NC(C)(C)C(=O)N[C@@H](Cc1c[nH]cn1)C(=O)N1CCC[C@H]1C(=O)N1CCC[C@H]1C(=O)NC1(C(=O)N[C@@H](CO)C(N)=O)CC1 [Compound 41] (H-Y[Aib]QGT[αMePhe(2-F)]TSDYSILLDKK([AEEA-AEEA-γGlu-C20 diacid])AQ[Aib]AFIEFLLESHPSS[Aib]HPP[Ac3c]S-NH2; N-terminus assumed),1.51,252.12,758.82,429.00
